# According to ChEMBL document CHEMBL1145498, “A systematic interaction map of validated kinase inhibitors with Ser/Thr kinases” (Proc Natl Acad Sci U S A, 2007):
# Experiments:
# [1] = target: Serine/threonine-protein kinase VRK2 (Homo sapiens) (UniProt Q86Y07)
# [2] = target: T1, Serine/threonine-protein kinase VRK3 (Homo sapiens) (UniProt Q8IV63)
# T1 sequence (whole entry): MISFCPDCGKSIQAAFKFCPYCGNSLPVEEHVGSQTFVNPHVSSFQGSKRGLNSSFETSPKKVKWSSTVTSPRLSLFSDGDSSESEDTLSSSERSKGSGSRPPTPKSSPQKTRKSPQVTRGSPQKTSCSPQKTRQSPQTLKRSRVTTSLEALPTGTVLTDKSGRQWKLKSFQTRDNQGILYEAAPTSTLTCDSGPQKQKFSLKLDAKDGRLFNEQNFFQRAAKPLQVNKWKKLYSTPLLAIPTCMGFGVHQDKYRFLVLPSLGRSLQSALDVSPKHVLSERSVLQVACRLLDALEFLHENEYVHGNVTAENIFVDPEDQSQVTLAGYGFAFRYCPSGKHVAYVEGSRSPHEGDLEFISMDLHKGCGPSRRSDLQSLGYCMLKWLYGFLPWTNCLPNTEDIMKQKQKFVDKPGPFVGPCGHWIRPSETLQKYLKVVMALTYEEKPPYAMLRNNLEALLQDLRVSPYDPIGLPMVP
# [3] = target: Ribosomal protein S6 kinase alpha-3 (Homo sapiens) (UniProt P51812)
# [4] = target: T2, Serine/threonine-protein kinase Nek2 (Homo sapiens) (UniProt P51955)
# T2 sequence (whole entry): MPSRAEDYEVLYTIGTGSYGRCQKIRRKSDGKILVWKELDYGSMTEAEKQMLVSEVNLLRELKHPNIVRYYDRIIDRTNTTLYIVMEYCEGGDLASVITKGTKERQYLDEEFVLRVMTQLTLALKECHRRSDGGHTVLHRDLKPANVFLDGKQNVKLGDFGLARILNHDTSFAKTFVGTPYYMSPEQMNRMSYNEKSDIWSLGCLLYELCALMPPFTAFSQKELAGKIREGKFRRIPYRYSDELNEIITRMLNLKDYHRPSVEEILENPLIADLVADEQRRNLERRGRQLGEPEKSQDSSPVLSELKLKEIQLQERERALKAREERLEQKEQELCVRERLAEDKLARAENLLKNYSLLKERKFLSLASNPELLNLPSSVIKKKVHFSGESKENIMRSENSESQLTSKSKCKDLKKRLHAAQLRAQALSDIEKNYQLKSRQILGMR
# [5] = target: Serine/threonine-protein kinase PAK 4 (Homo sapiens) (UniProt O96013)
# [6] = target: Serine/threonine-protein kinase 10 (Homo sapiens) (UniProt O94804)
# [7] = target: Cyclin-dependent kinase 16 (Homo sapiens) (UniProt Q00536)
# [8] = target: Serine/threonine-protein kinase pim-2 (Homo sapiens, UniProt Q9P1W9)
# [9] = target: STE20-like serine/threonine-protein kinase (Homo sapiens) (UniProt Q9H2G2)
# [10] = target: Calcium/calmodulin-dependent protein kinase type 1G (Homo sapiens) (UniProt Q96NX5)
# [11] = target: Serine/threonine-protein kinase 16 (Homo sapiens) (UniProt O75716)
# [12] = target: Cyclin-dependent kinase-like 1 (Homo sapiens) (UniProt Q00532)
# [13] = target: Tyrosine-protein kinase JAK1 (Homo sapiens) (UniProt P23458)
# [14] = target: Serine/threonine-protein kinase pim-3 (Homo sapiens) (UniProt Q86V86)
# [15] = target: T3, Calcium/calmodulin-dependent protein kinase type IV (Homo sapiens) (UniProt Q16566)
# T3 sequence (whole entry): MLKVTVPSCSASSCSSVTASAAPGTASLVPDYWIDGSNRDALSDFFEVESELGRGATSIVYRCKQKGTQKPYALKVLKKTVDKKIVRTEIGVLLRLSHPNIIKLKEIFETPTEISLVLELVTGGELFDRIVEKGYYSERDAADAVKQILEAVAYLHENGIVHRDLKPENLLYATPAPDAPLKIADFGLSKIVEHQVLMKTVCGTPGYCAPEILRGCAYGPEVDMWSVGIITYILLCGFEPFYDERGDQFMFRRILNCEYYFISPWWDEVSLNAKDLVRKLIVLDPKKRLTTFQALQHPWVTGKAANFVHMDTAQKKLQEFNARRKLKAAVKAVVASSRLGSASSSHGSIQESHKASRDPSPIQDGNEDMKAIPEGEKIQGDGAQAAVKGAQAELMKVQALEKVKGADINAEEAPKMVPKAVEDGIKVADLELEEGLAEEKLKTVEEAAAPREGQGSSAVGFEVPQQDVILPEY
# [16] = target: Serine/threonine-protein kinase PLK1 (Homo sapiens) (UniProt P53350)
# [17] = target: T4, Serine/threonine-protein kinase 4 (Homo sapiens) (UniProt Q13043)
# T4 sequence (whole entry): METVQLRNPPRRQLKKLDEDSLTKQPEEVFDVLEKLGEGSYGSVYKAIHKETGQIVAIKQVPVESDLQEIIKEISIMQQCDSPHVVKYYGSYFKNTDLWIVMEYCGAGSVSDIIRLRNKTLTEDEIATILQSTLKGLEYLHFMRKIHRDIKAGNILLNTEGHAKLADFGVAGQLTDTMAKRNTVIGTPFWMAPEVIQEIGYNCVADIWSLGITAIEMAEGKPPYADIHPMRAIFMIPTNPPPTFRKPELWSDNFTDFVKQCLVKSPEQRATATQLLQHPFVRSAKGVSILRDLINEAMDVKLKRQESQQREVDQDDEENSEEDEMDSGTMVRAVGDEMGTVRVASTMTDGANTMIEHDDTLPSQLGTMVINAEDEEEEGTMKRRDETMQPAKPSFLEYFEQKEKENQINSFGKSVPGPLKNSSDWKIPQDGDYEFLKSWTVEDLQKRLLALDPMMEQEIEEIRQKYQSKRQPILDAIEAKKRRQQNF
# [18] = target: Mitogen-activated protein kinase 11 (Homo sapiens, UniProt Q15759)
# [19] = target: Serine/threonine-protein kinase 26 (Homo sapiens) (UniProt Q9P289)
# [20] = target: Serine/threonine-protein kinase pim-1 (Homo sapiens) (UniProt P11309)
# Chain of Tyrosine-protein kinase JAK1 (Homo sapiens) (P23458 whole entry): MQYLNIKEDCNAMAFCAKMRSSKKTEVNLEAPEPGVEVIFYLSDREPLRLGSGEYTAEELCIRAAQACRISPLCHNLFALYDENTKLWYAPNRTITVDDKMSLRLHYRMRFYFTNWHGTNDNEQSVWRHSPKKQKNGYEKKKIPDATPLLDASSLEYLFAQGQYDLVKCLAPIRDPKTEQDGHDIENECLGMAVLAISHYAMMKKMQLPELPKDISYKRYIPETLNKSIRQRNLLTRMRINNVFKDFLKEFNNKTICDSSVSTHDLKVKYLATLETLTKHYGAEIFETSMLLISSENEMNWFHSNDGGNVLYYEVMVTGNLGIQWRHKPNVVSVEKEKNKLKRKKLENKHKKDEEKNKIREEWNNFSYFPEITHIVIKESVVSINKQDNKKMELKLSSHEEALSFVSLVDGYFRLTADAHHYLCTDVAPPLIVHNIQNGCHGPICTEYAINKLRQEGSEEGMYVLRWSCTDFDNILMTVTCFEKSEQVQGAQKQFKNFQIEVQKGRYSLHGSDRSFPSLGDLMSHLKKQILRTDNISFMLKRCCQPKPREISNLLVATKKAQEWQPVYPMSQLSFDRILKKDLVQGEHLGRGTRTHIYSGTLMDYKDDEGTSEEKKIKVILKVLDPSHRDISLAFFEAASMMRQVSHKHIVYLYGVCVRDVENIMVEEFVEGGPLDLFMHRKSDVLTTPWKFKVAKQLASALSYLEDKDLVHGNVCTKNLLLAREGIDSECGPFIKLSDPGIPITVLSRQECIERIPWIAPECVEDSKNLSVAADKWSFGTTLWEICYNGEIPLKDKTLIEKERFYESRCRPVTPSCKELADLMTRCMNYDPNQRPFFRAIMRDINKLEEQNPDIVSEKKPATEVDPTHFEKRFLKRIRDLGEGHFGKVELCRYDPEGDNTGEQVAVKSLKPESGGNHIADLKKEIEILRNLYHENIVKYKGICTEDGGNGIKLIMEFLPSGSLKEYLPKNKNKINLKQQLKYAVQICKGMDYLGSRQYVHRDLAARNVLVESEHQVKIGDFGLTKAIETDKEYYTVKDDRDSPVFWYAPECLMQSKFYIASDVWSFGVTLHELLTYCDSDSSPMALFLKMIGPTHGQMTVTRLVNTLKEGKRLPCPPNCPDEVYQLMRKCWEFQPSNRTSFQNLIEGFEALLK
# Chain of Serine/threonine-protein kinase pim-2 (Q9P1W9 whole entry, looked up): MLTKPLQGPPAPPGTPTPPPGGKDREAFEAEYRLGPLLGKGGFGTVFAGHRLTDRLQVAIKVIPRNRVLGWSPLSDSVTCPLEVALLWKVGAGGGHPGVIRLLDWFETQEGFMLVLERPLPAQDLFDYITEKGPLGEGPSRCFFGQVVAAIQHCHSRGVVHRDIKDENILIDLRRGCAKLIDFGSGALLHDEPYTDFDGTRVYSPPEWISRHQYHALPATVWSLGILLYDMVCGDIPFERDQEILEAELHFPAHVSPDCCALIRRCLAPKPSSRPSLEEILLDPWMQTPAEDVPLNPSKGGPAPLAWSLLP
# Chain of Serine/threonine-protein kinase PLK1 (Homo sapiens) (P53350 whole entry): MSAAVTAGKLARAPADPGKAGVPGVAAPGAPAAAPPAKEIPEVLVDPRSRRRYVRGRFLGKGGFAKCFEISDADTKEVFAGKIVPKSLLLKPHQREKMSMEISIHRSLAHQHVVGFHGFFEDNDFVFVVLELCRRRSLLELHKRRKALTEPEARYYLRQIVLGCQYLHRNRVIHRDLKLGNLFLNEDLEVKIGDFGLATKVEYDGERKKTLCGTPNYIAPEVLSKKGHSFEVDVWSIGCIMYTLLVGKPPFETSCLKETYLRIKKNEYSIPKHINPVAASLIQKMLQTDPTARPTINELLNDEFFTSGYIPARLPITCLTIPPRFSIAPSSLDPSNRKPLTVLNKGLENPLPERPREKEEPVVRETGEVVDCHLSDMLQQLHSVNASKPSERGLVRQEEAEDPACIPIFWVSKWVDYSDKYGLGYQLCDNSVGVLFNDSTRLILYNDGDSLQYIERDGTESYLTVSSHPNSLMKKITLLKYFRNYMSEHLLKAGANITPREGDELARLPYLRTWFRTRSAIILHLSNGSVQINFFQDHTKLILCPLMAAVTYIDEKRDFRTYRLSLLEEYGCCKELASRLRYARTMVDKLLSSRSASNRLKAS
# Chain of Serine/threonine-protein kinase 16 (Homo sapiens) (O75716 whole entry): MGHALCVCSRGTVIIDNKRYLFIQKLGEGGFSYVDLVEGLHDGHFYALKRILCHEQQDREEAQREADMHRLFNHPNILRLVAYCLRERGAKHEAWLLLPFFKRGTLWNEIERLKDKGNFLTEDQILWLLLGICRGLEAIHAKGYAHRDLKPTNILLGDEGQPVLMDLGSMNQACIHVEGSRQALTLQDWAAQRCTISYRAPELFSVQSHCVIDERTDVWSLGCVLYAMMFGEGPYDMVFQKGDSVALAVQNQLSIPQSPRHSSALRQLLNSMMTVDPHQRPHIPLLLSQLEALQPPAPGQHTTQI
# Chain of Serine/threonine-protein kinase 26 (Homo sapiens) (Q9P289 2-416 limits assumed): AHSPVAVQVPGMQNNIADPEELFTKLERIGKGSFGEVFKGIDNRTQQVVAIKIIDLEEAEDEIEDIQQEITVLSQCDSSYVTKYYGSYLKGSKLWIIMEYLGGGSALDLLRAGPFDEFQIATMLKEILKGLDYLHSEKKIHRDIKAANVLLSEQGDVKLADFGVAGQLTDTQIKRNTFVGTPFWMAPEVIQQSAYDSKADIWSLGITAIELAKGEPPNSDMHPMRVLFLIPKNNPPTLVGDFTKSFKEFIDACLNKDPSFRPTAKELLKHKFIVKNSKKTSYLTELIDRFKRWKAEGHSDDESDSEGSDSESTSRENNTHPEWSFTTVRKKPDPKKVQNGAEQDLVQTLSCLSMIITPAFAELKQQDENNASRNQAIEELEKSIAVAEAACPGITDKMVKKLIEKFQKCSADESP
# Chain of Serine/threonine-protein kinase VRK2 (Homo sapiens) (Q86Y07 whole entry): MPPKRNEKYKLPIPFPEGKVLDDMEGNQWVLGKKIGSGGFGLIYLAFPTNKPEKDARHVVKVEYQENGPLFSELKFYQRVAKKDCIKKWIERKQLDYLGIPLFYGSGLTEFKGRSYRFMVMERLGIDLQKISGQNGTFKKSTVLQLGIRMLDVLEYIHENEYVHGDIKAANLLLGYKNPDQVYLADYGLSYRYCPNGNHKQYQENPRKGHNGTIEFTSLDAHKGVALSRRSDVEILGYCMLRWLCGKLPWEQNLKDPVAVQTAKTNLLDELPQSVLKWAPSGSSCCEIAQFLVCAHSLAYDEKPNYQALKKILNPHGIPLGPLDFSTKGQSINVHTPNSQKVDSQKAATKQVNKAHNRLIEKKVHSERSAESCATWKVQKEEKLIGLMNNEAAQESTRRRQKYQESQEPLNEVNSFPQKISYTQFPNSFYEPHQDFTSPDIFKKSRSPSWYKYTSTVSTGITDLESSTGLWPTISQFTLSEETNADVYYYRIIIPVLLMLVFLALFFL
# Chain of Mitogen-activated protein kinase 11 (Q15759 whole entry): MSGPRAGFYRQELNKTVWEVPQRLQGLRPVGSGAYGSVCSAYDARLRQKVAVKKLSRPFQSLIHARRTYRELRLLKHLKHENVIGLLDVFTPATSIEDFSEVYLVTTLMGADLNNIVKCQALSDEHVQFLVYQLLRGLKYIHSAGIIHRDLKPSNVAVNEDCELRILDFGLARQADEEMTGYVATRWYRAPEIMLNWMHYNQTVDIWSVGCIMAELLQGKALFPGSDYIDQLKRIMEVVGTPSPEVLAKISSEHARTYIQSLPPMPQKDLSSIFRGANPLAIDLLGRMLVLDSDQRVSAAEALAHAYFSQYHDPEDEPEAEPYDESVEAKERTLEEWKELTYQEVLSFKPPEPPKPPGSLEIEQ
# Chain of Cyclin-dependent kinase 16 (Homo sapiens) (Q00536 whole entry): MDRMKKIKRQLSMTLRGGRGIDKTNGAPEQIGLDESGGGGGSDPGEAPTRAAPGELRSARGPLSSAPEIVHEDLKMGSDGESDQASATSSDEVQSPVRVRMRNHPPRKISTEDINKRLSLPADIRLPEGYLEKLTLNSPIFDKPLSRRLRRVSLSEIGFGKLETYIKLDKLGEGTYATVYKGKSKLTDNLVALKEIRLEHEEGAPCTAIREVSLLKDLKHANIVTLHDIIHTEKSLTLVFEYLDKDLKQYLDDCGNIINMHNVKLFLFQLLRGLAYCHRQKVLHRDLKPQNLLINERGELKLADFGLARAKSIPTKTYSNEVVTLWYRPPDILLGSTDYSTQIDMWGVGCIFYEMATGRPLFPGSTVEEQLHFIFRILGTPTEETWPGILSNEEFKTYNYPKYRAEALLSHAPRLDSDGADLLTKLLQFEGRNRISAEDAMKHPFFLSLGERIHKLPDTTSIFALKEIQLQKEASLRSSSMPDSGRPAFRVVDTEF
# Chain of Calcium/calmodulin-dependent protein kinase type 1G (Homo sapiens) (Q96NX5 whole entry): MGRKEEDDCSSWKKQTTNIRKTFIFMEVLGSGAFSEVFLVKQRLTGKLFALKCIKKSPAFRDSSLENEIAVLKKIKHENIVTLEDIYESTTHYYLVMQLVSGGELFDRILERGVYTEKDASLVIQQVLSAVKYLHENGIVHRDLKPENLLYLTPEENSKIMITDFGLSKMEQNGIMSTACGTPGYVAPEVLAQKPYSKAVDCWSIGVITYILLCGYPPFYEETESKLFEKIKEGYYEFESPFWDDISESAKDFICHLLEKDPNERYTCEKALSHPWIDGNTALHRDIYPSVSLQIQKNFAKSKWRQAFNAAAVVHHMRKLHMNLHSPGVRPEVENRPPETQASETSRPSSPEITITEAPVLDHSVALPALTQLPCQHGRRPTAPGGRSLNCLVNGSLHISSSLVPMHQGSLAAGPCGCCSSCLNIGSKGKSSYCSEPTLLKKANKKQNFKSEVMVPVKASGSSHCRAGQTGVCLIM
ΔTm [1] [°C],ΔTm [2] [°C],ΔTm [3] [°C],ΔTm [4] [°C],ΔTm [5] [°C],ΔTm [6] [°C],ΔTm [7] [°C],ΔTm [8] [°C],ΔTm [9] [°C],ΔTm [10] [°C],ΔTm [11] [°C],ΔTm [12] [°C],ΔTm [13] [°C],ΔTm [14] [°C],ΔTm [15] [°C],ΔTm [16] [°C],ΔTm [17] [°C],ΔTm [18] [°C],ΔTm [19] [°C],ΔTm [20] [°C],Structure (SMILES)
0.3,1.3,4.6,0.7,1.8,7.7,-1.7,0.4,4.4,-0.8,7.6,1.5,7.1,-0.1,-0.5,0.1,4.4,-2.5,3.7,0.1,O=C1Nc2cc(Br)ccc2/C1=C1/Nc2ccccc2/C1=N\O
0.3,0.9,-0.4,1.5,1.2,0.9,-0.4,-0.2,0.4,-0.1,-0.4,-0.3,2.3,0.3,0.9,1.3,0.9,-0.3,0.4,-0.2,O=c1sn(Cc2ccccc2)c(=S)n1Cc1ccccc1
0.6,0.2,2.4,1.4,0.3,4,1.2,3.8,2.4,0.9,4.8,1.4,4.6,4.6,2.1,2,2.8,1.7,3.1,3.7,O=c1cc(-c2ccc(O)cc2)oc2cc(O)cc(O)c12
2.6,0.1,7,2.3,1.5,2.8,0.1,3.6,2.2,2,6.9,0.7,5.5,4.8,1.5,1.6,4.3,0.8,2.1,3.6,O=C1c2ccccc2-c2n[nH]c3cccc1c23
0.4,1.1,-0.1,2.1,1.1,1,0.3,0.4,0.4,0.7,0.5,-0.3,1.3,0.5,0.4,0.7,2.2,-0.3,-0.5,0.2,Cc1cc2ncc(-c3ccccc3)nc2cc1C
1,1.2,1,1.9,1.8,6.2,1.7,4,4.6,1,3.5,0.6,-0.5,6.3,2.8,0.6,4.1,0.5,0.9,5.9,O=C1NC(=O)C(c2c[nH]c3ccccc23)=C1c1c[nH]c2ccccc12
0.7,0.3,0.3,0.2,-0.3,4.4,-0.4,0.8,4.4,-0.1,0.5,-0.2,4.4,1.3,0.2,0.1,0.9,10.9,0,-1.4,Oc1ccc(-c2nc(-c3ccc(F)cc3)c(-c3ccncc3)[nH]2)cc1
1.5,0.4,0.7,-0.5,0.1,5.9,-0.9,0.5,5.4,-0.2,0.5,0,3.7,0.7,-0.2,-1.4,1.4,14.8,0.7,-1.2,O=[N+]([O-])c1ccc(-c2nc(-c3ccc(F)cc3)c(-c3ccncc3)[nH]2)cc1
0.5,0.2,6.3,1,1.6,0,-0.4,0,8.2,0,0.7,0,-0.1,-0.1,0.1,1.6,0.5,0,-0.4,0,C#Cc1cccc(Nc2ncnc3cc(OCCOC)c(OCCOC)cc23)c1

Structure (SMILES),ΔTm [1] [°C],ΔTm [2] [°C],ΔTm [3] [°C],ΔTm [4] [°C],ΔTm [5] [°C],ΔTm [6] [°C],ΔTm [7] [°C],ΔTm [8] [°C],ΔTm [9] [°C],ΔTm [10] [°C],ΔTm [11] [°C],ΔTm [12] [°C],ΔTm [13] [°C],ΔTm [14] [°C],ΔTm [15] [°C],ΔTm [16] [°C],ΔTm [17] [°C],ΔTm [18] [°C],ΔTm [19] [°C],ΔTm [20] [°C]
O=S(=O)(NCCNC/C=C/c1ccc(Br)cc1)c1cccc2cnccc12,0.1,0.2,0.6,-0.2,1,-0.4,0.7,-0.3,1.6,0,0.5,-0.1,-0.3,1,0.4,1,-0.2,0.4,1.2,-0.2
